Tests used:
Test in all cases: relative viability (nuclei count vs DMSO), 5 days (fraction); higher = more cells survive
[1] = compound: OCc1c[nH]c2ccccc12 [Indole-3-carbinol] + CC(=O)Nc1cccc(-n2c(=O)n(C3CC3)c(=O)c3c(Nc4ccc(I)cc4F)n(C)c(=O)c(C)c32)c1 [Trametinib] (partner 0.02 µM)
Summary of the method: (§1)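 Lung cancer cell lines, seeded in 1536-well plates, were treated the following day by pin tool with a single drug or with five library-drug doses (not always all listed) in √10 steps on top of a fixed anchor-drug dose. Cells were fixed and nuclei stained in one step after 5 days, and nuclei were counted. Relative viability is the nuclei count for treated wells divided by that for vehicle wells, reported as medians of duplicate plates.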

[2] = compound: OCc1c[nH]c2ccccc12 [Indole-3-carbinol] + CC1(C)CCC(c2ccc(Cl)cc2)=C(CN2CCN(c3ccc(C(=O)NS(=O)(=O)c4ccc(N[C@H](CCN5CCOCC5)CSc5ccccc5)c(S(=O)(=O)C(F)(F)F)c4)cc3)CC2)C1 [Navitoclax] (partner 0.5 µM)
Summary of the method: as §1

[3] = compound: OCc1c[nH]c2ccccc12 [Indole-3-carbinol] + COc1cc2c(Oc3ccc(NC(=O)C4(C(=O)Nc5ccc(F)cc5)CC4)cc3F)ccnc2cc1OCCCN1CCOCC1 [Foretinib] (partner 0.25 µM)
Summary of the method: as §1

[4] = compound: OCc1c[nH]c2ccccc12 [Indole-3-carbinol] + CS(=O)(=O)CCNCc1ccc(-c2ccc3ncnc(Nc4ccc(OCc5cccc(F)c5)c(Cl)c4)c3c2)o1 [Lapatinib] (partner 2 µM)
Summary of the method: as §1

[5] = compound: OCc1c[nH]c2ccccc12 [Indole-3-carbinol] + Cc1nc(Nc2ncc(C(=O)Nc3c(C)cccc3Cl)s2)cc(N2CCN(CCO)CC2)n1 [Dasatinib] (partner 0.075 µM)
Summary of the method: as §1

NCI-H2087
relative viability ([1]; first compound 0.253 µM): 0.179 | relative viability ([1]; first compound 0.8 µM): 0.23 | relative viability ([1]; first compound 2.53 µM): 0.193 | relative viability ([1]; first compound 8 µM): 0.201 | relative viability ([2]; first compound 0.253 µM): 1.04 | relative viability ([2]; first compound 0.8 µM): 1.22 | relative viability ([2]; first compound 2.53 µM): 1.02 | relative viability ([2]; first compound 8 µM): 0.967 | relative viability ([3]; first compound 0.253 µM): 1.08 | relative viability ([3]; first compound 0.8 µM): 1.47 | relative viability ([3]; first compound 2.53 µM): 1.18 | relative viability ([3]; first compound 8 µM): 1.13 | relative viability ([4]; first compound 0.253 µM): 1.32 | relative viability ([4]; first compound 0.8 µM): 0.952 | relative viability ([4]; first compound 2.53 µM): 1.12 | relative viability ([4]; first compound 8 µM): 0.814 | relative viability ([5]; first compound 0.253 µM): 0.985 | relative viability ([5]; first compound 0.8 µM): 0.942 | relative viability ([5]; first compound 2.53 µM): 0.936 | relative viability ([5]; first compound 8 µM): 0.78

NCI-H2126
relative viability ([1]; first compound 0.253 µM): 0.573 | relative viability ([1]; first compound 0.8 µM): 0.577 | relative viability ([1]; first compound 2.53 µM): 0.541 | relative viability ([1]; first compound 8 µM): 0.509 | relative viability ([2]; first compound 0.253 µM): 0.824 | relative viability ([2]; first compound 0.8 µM): 0.872 | relative viability ([2]; first compound 2.53 µM): 0.865 | relative viability ([2]; first compound 8 µM): 0.83 | relative viability ([3]; first compound 0.253 µM): 1.05 | relative viability ([3]; first compound 0.8 µM): 1.23 | relative viability ([3]; first compound 2.53 µM): 1.25 | relative viability ([3]; first compound 8 µM): 1.06 | relative viability ([4]; first compound 0.253 µM): 0.761 | relative viability ([4]; first compound 0.8 µM): 0.741 | relative viability ([4]; first compound 2.53 µM): 0.78 | relative viability ([4]; first compound 8 µM): 0.748 | relative viability ([5]; first compound 0.253 µM): 0.618 | relative viability ([5]; first compound 0.8 µM): 0.683 | relative viability ([5]; first compound 2.53 µM): 0.592 | relative viability ([5]; first compound 8 µM): 0.632

NCI-H2170
relative viability ([1]; first compound 0.253 µM): 0.882 | relative viability ([1]; first compound 0.8 µM): 0.859 | relative viability ([1]; first compound 2.53 µM): 0.892 | relative viability ([1]; first compound 8 µM): 0.869 | relative viability ([2]; first compound 0.253 µM): 0.577 | relative viability ([2]; first compound 0.8 µM): 0.766 | relative viability ([2]; first compound 2.53 µM): 0.682 | relative viability ([2]; first compound 8 µM): 0.607 | relative viability ([3]; first compound 0.253 µM): 1.04 | relative viability ([3]; first compound 0.8 µM): 0.861 | relative viability ([3]; first compound 2.53 µM): 0.815 | relative viability ([3]; first compound 8 µM): 0.943 | relative viability ([4]; first compound 0.253 µM): 0.281 | relative viability ([4]; first compound 0.8 µM): 0.28 | relative viability ([4]; first compound 2.53 µM): 0.253 | relative viability ([4]; first compound 8 µM): 0.289 | relative viability ([5]; first compound 0.253 µM): 0.588 | relative viability ([5]; first compound 0.8 µM): 0.644 | relative viability ([5]; first compound 2.53 µM): 0.703 | relative viability ([5]; first compound 8 µM): 0.594

NCI-H2228
relative viability ([1]; first compound 0.253 µM): 0.576 | relative viability ([1]; first compound 0.8 µM): 0.614 | relative viability ([1]; first compound 2.53 µM): 0.501 | relative viability ([1]; first compound 8 µM): 0.581 | relative viability ([2]; first compound 0.253 µM): 0.845 | relative viability ([2]; first compound 0.8 µM): 1.06 | relative viability ([2]; first compound 2.53 µM): 0.91 | relative viability ([2]; first compound 8 µM): 0.674 | relative viability ([3]; first compound 0.253 µM): 0.945 | relative viability ([3]; first compound 0.8 µM): 0.897 | relative viability ([3]; first compound 2.53 µM): 0.984 | relative viability ([3]; first compound 8 µM): 0.935 | relative viability ([4]; first compound 0.253 µM): 1.12 | relative viability ([4]; first compound 0.8 µM): 1.17 | relative viability ([4]; first compound 2.53 µM): 1.2 | relative viability ([4]; first compound 8 µM): 1.32 | relative viability ([5]; first compound 0.253 µM): 0.501 | relative viability ([5]; first compound 0.8 µM): 0.637 | relative viability ([5]; first compound 2.53 µM): 0.595 | relative viability ([5]; first compound 8 µM): 0.562

NCI-H2347
relative viability ([1]; first compound 0.253 µM): 0.422 | relative viability ([1]; first compound 0.8 µM): 0.276 | relative viability ([1]; first compound 2.53 µM): 0.296 | relative viability ([1]; first compound 8 µM): 0.29 | relative viability ([2]; first compound 0.253 µM): 0.765 | relative viability ([2]; first compound 0.8 µM): 0.782 | relative viability ([2]; first compound 2.53 µM): 0.814 | relative viability ([2]; first compound 8 µM): 0.699 | relative viability ([3]; first compound 0.253 µM): 0.743 | relative viability ([3]; first compound 2.53 µM): 1.21 | relative viability ([3]; first compound 8 µM): 0.931 | relative viability ([4]; first compound 0.253 µM): 0.937 | relative viability ([4]; first compound 0.8 µM): 1.03 | relative viability ([4]; first compound 2.53 µM): 1.08 | relative viability ([4]; first compound 8 µM): 0.672 | relative viability ([5]; first compound 0.253 µM): 0.303 | relative viability ([5]; first compound 0.8 µM): 0.26 | relative viability ([5]; first compound 2.53 µM): 0.313 | relative viability ([5]; first compound 8 µM): 0.344

NCI-H2405
relative viability ([1]; first compound 0.253 µM): 0.634 | relative viability ([1]; first compound 0.8 µM): 0.615 | relative viability ([1]; first compound 2.53 µM): 0.672 | relative viability ([1]; first compound 8 µM): 0.703 | relative viability ([2]; first compound 0.253 µM): 1.06 | relative viability ([2]; first compound 0.8 µM): 0.563 | relative viability ([2]; first compound 2.53 µM): 0.964 | relative viability ([2]; first compound 8 µM): 0.837 | relative viability ([3]; first compound 0.253 µM): 1.07 | relative viability ([3]; first compound 0.8 µM): 1.07 | relative viability ([3]; first compound 2.53 µM): 1.04 | relative viability ([3]; first compound 8 µM): 0.997 | relative viability ([4]; first compound 0.253 µM): 1.06 | relative viability ([4]; first compound 0.8 µM): 1.08 | relative viability ([4]; first compound 2.53 µM): 1.16 | relative viability ([4]; first compound 8 µM): 1.02 | relative viability ([5]; first compound 0.253 µM): 0.212 | relative viability ([5]; first compound 0.8 µM): 0.211 | relative viability ([5]; first compound 2.53 µM): 0.2 | relative viability ([5]; first compound 8 µM): 0.214

NCI-H3122
relative viability ([1]; first compound 0.253 µM): 0.229 | relative viability ([1]; first compound 0.8 µM): 0.255 | relative viability ([1]; first compound 2.53 µM): 0.234 | relative viability ([1]; first compound 8 µM): 0.248 | relative viability ([2]; first compound 0.253 µM): 1.04 | relative viability ([2]; first compound 0.8 µM): 1.01 | relative viability ([2]; first compound 2.53 µM): 1.02 | relative viability ([2]; first compound 8 µM): 1.01 | relative viability ([3]; first compound 0.253 µM): 0.972 | relative viability ([3]; first compound 0.8 µM): 0.962 | relative viability ([3]; first compound 2.53 µM): 0.999 | relative viability ([3]; first compound 8 µM): 0.961 | relative viability ([4]; first compound 0.253 µM): 1.05 | relative viability ([4]; first compound 0.8 µM): 1.01 | relative viability ([4]; first compound 2.53 µM): 1.04 | relative viability ([4]; first compound 8 µM): 1.05 | relative viability ([5]; first compound 0.253 µM): 0.839 | relative viability ([5]; first compound 0.8 µM): 0.771 | relative viability ([5]; first compound 2.53 µM): 0.969 | relative viability ([5]; first compound 8 µM): 0.851

PC-3 [JPC-3]
relative viability ([1]; first compound 0.253 µM): 0.749 | relative viability ([1]; first compound 0.8 µM): 0.719 | relative viability ([1]; first compound 2.53 µM): 0.678 | relative viability ([1]; first compound 8 µM): 0.667 | relative viability ([2]; first compound 0.253 µM): 0.8 | relative viability ([2]; first compound 0.8 µM): 0.804 | relative viability ([2]; first compound 2.53 µM): 0.823 | relative viability ([2]; first compound 8 µM): 0.783 | relative viability ([3]; first compound 0.253 µM): 1.07 | relative viability ([3]; first compound 0.8 µM): 1.05 | relative viability ([3]; first compound 2.53 µM): 1.02 | relative viability ([3]; first compound 8 µM): 0.967 | relative viability ([4]; first compound 0.253 µM): 0.462 | relative viability ([4]; first compound 0.8 µM): 0.441 | relative viability ([4]; first compound 2.53 µM): 0.399 | relative viability ([4]; first compound 8 µM): 0.439 | relative viability ([5]; first compound 0.253 µM): 0.979 | relative viability ([5]; first compound 0.8 µM): 1.02 | relative viability ([5]; first compound 2.53 µM): 0.986 | relative viability ([5]; first compound 8 µM): 0.949

— the supplement of paper PMC10307832
